Assays:
brain tMHA levels = assay: Brain tele-methylhistamine (tMHA) levels by LC-MS; assay type: in vivo, mice; settings: oral, 30 minutes after administration
Method: Histamine (HA) is released all over the brain by tuberomammillary nucleus neurons. […] HA is metabolized by histamine-N-methyltransferase to tele-methylhistamine (tMHA) in some tissues, including brain.
Mice (n=8) were treated during the first hour of the lights-on period and sacrificed 30 min later. Brain tissue was collected and subjected to LC-MS analysis (Croyal et al. Analytical Biochemistry, 2011, 409:28-36) to determine t-MHA levels.

Cynomolgus monkey = assay: Signs for emergence from ketamine/sevoflurane anesthesia in nonhuman primate (PET experiment); assay type: in vivo
Method: Said experiment was performed on the α7 nAChR in the non-human primate (NHP) brain.
An animal (Cynomolgus monkey, male, 5.8 kg) was anesthesized for the entire duration of the PET experiment, i.e. for approximately 7.5 hours. Due to the nature of these experiments, it is crucial that anesthesia is maintained.
General anesthesia was induced by i.m. injection of ketamine hydrochloride (10 mg/kg, Ketaminol, Intervet AB). The animal was intubated and general anesthesia was maintained by inhalational administration of sevoflurane (1.5-8%, Abbott Scandinavia AB). Body temperature was maintained by Bair Hugger Model 505 (Arizant Healthcare Inc., Eden Prairie, Minn., USA). ECG, pulse, blood pressure, respiration rate, oxygen saturation and tidal CO2 level were monitored continuously during the experiment. Ventilation of the animal (breathing frequency and volume) was controlled by machine during the general anesthesia. The animal underwent two consecutive PET scans. The PET ligand was administered i.v. at doses too low to have a pharmacodynamic effect (i.e. total dose of 0.16 and 0.25 μg). Before the start of the second PET scan, 10 mg/kg of compound A-1 was administered to the animal using an oral gavage tube.

orexin-deficient mice = assay: Orexin-deficiency model: number of narcoleptic episodes (behavioral arrests); assay type: in vivo
Text: Male transgenic mice with a knockout of the orexin peptide gene are used. Orexin-deficient mice express a phenotype with cataplexy events (observed as ‘behavioral arrests’) and a disrupted sleep pattern including fragmented sleep and sleepiness in their active period.
The animals are observed and videotaped via infrared cameras during the first hours of the lights-off period which is the active phase of nocturnal rodents like mice. At this time, orexin-deficient mice show the most ‘behavioral arrests’. The number of these events can be furthermore increased by presenting a new environment. For this purpose, new saw dust, a running wheel, marbles and tunnels are placed in the test environment. The number of ‘behavioral arrests’ are offline counted by the experimenter for each hour of recording. Behavioral arrests were defined by phases of total inactivity outside the next box, which last longer than 10 second, preceded and followed by robust locomotor activity (see also Scammell et al., 2009, Sleep 32(1): 111-116). Some of the animals have temporal skull EEG electrodes implanted which are connected to transmitters. The EEG is recorded via a receiver and stored on a PC for further analysis. EEG is used to assess and to quantify sleep behavior and vigilance stage.
A cross-over design is used because of the high inter- and intra-individual variability of the behaviors to be observed. Furthermore, to avoid habituation to the test environment, the animals are only tested once per week in the test environment. During the remaining days, the animals are in their homecage.
For each experimental session, 3-4 mice are put into the test environment 3 hours before lights-off. The first experimental session (week 1) is used to get a baseline (without treatment). The second and third sessions (weeks 2+3) are used for treatment (vehicle & compound, cross-over design, administration 5 minutes before lights-off). The fourth and last experimental session is again without treatment to evaluate a post-treatment baseline.

[1] = cited from earlier work
mice = assay: EEG assessment of sleep behavior and vigilance stage; assay type: in vivo; settings: for Active wake (β and γ frequencies), mean difference drug-vehicle / NREM (δ frequency), mean difference drug-vehicle / Quiet wake (α frequency), mean difference drug-vehicle / REM (θ frequency), mean difference drug-vehicle: 30 mg/kg oral
Method: Animals have temporal skull EEG electrodes implanted which are connected to transmitters. Animals were group-housed (2-4) per cage at a constant temperature of 22±1° C., on a 12:12 light-dark schedule. The EEG is recorded via a receiver and stored on a PC for further analysis. EEG is used to assess and to quantify sleep behavior and vigilance stage.
Animals were given a 1-day period of acclimatization in the recording cages with recording cables connected. On the 1st day of the experiment, EEG recordings were made continuously during a 22-hours period beginning at 11 A.M., 15 min after vehicle administration. On the second day of the experiment, EEG recordings were carried out in the same way, but 15 minutes after drug administration. In this way, each animal served as its own control. 10 animals were recorded from simultaneously in each experiment. Automatic evaluation of the nycthemeral cycle (REM sleep, classical sleep, wakefulness and an awake non-vigilant state termed “drowsiness”) was performed as described (Vigouret et al., 1978 Pharmacology 16 Suppl 1:156-73). In the present context, “quiet wake” and “active wake”, describe conscious animals in a resting and an active state, respectively, while “REM” and “NREM” represent sleep states.
FIG. 3 depicts the effects of 30 mg/kg compound B-1, orally administered 6 h after lights on (9:00) in mice (n=10) on quiet wake (α frequency, 9.5-12.5 Hz), active wake (β frequency, 12.5-30.5 Hz; and γ frequency, >30.5 Hz), REM sleep (θ frequency, 4.5-9.5 Hz) and NREM sleep (δ frequency, <4.5 Hz). Assessment period shown is 3 hours.

[2] = 30 mg/kg oral 6 h after lights on, 3 hours assessment

SMILES: C[C@H](OC(=O)N[C@@H]1CN2CCC1CC2)c1ccccc1F [A-1, (S)-(1-aza-bicyclo[2.2.2]oct-3-yl)-carbamic acid (S)-1-(2-fluoro-phenyl)-ethyl ester]
- brain tMHA levels (brain tMHA levels; 10 mg/kg dose): significant elevation
- change in breathing behavior (sign for emergence from general anesthesia) (Cynomolgus monkey; 10 mg/kg oral gavage, fifteen minutes after administration, sevoflurane 2.9%): shallow breathing was observed
- doses of sevoflurane necessary to maintain anesthesia after the compound (Cynomolgus monkey; rest of experiment (about two hours) after 10 mg/kg oral, 2.6-2.9% before the compound): 3.0-3.7%

SMILES: C[C@H]1[C@H](Oc2ccc(-c3ccc4[nH]ccc4c3)nn2)C2CCN1CC2 [B-4, (2S,3R)-3-[6-(1H-indol-5-yl)-pyridazin-3-yloxy]-2-methyl-1-aza-bicyclo[2.2.2]octane]
- decrease of number of narcoleptic episodes, whole 4 hours observation period (orexin-deficient mice; 3 mg/kg orally directly before lights-off, p=0.03): ca. 25%
- reduction of number of narcoleptic episodes, first hour (orexin-deficient mice; 3 mg/kg orally directly before lights-off, p=0.04): ca. 47%

SMILES: CCCC(C)C1(CC)C(=O)NC(=S)NC1=O (centres unmarked) [thiopentone]
- dose remaining in the body ([1]; at 24 hours): ≤ 30%
- elimination by oxidative metabolism in the liver, rate ([1]; in vivo): 15 % per hour
- elimination half-life ([1]; in vivo): 3.4 to 22 h
- initial drug effect terminated by redistribution, time ([1]; in vivo): 5 to 15 min

SMILES: Cc1ccc(-c2ccc(O[C@H]3CN4CCC3CC4)cn2)cc1 [B-1, (R)-3-(6-p-tolyl-pyridin-3-yloxy)-1-aza-bicyclo[2.2.2]octane]
- decrease of number of narcoleptic episodes, first hour of the observation period (orexin-deficient mice; 10 mg/kg orally directly before lights-off, p<0.05 Anova): ca. 66%
- effect on NREM sleep (mice; [2]): decline of NREM sleep
- effect on time spent in quiet wake (mice; [2]): increases the time spent in quiet wake
- Active wake (β and γ frequencies), mean difference drug-vehicle (mice; time point 9:30): 0.9 min
- NREM (δ frequency), mean difference drug-vehicle (mice; time point 9:30): -12.4 min
- Quiet wake (α frequency), mean difference drug-vehicle (mice; time point 9:30): 14.3 min
- REM (θ frequency), mean difference drug-vehicle (mice; time point 9:30): -2.2 min
- Active wake (β and γ frequencies), mean difference drug-vehicle (mice; time point 10:30): 3.6 min
- NREM (δ frequency), mean difference drug-vehicle (mice; time point 10:30): -7.1 min
- Quiet wake (α frequency), mean difference drug-vehicle (mice; time point 10:30): 6.1 min
- REM (θ frequency), mean difference drug-vehicle (mice; time point 10:30): -2.1 min
- Active wake (β and γ frequencies), mean difference drug-vehicle (mice; time point 11:30): 0.1 min
- NREM (δ frequency), mean difference drug-vehicle (mice; time point 11:30): 2.1 min
- Quiet wake (α frequency), mean difference drug-vehicle (mice; time point 11:30): -1.8 min
- REM (θ frequency), mean difference drug-vehicle (mice; time point 11:30): -0.9 min
- Active wake (β and γ frequencies), mean difference drug-vehicle (mice; time point 12:30): 0.3 min
- NREM (δ frequency), mean difference drug-vehicle (mice; time point 12:30): -0.1 min
- Quiet wake (α frequency), mean difference drug-vehicle (mice; time point 12:30): -0.9 min
- REM (θ frequency), mean difference drug-vehicle (mice; time point 12:30): -0.2 min
- brain tMHA levels (brain tMHA levels; all doses tested): significantly elevated

— patent US11311525B2, “Use of alpha 7 nicotinic acetylcholine receptor agonists” (Novartis AG, priority 2013, dated 2022)
